According to US10577387B1, “Platinum (II) complexes containing N-heterocyclic carbene ligand and pincer ligands, synthesis, and their applications in cancer treatment” (priority 2018, dated 2020):

Columns and labels:
HeLa = assay: MTT assay, in vitro cytotoxicity; format: cell-based, human; settings: 72 h
Procedure: (§1) The cell lines were maintained in cell culture media (Minimum essential medium (MEM) for HeLa; and Dulbecco's modified eagle medium (DMEM) for MDA-MB-231 and MiHa, Roswell Park Memorial Institute (RPMI) medium for NCI-H460 and HCT116 supplemented with fetal bovine serum (10 vol %), streptomycin (100 μg/ml) and penicillin (100 U/ml) in an incubator (5% CO2) at 37° C.
(§2) The inhibition of cell growth by different metal complexes were determined by MTT assay. Firstly, 4×10^3 to 8×10^3 cells were seeded on 96-well culture plates for 24 h. Then, different concentrations of complex was added into different wells by serial dilution and the cells were incubated with complex for 48-72 h. After that, 10 μl of MTT solution (5 mg/ml) was added per well and the plate was incubated for 4 h at 37° C. in a humidified atmosphere of 5% CO2. Viable cells with active metabolism converted MTT into a purple colored formazan product. In order to solubilize the formazan for absorbance readings, 100 μl of SDS (0.1 g/ml, 0.01 M HCl) was added per well and the plate was kept in a dark and humidified chamber overnight. Finally, the absorbance at 580 nm of each well was monitored by microtiter plate reader.
(§3) The growth inhibition by a specific complex was represented by IC50 (concentration of a complex causing 50% inhibition of cell growth). Each experiment was repeated three times and the results were expressed as means±standard deviation (SD).

NCI-H460 = assay: MTT assay, in vitro cytotoxicity; format: cell-based, human; settings: 72 h
Procedure: as §1, §2, §3

HCT116 = assay: MTT assay, in vitro cytotoxicity; format: cell-based, human; settings: 72 h
Procedure: as §1, §2, §3

MDA-MB-231 = assay: MTT assay, in vitro cytotoxicity / cell growth; format: cell-based, human; settings: for cell growth inhibition, agent alone: 1b at sub-cytotoxic concentration, LY294002 or U0126 10 or 20 μM
MiHa = assay: MTT assay, in vitro cytotoxicity, non-tumorigenic hepatocyte; format: cell-based, human; settings: 72 h
Procedure: as §1, §2
The growth inhibition by a specific complex was represented by IC50 (concentration of a complex causing 50% inhibition of cell growth). […]

MS1 cells [1] = assay: Tube formation assay; format: cell-based; settings: 3 h, sub-cytotoxic concentrations
Procedure: The In Vitro Angiogenesis Kit (CaymanChemical) was used in the tube formation assay. Firstly, the ECMatrix solution and 10× Diluent Buffer were mixed in 9:1 (v/v) ratio on ice. Then 50 μL of mixture was transferred into each well of 96-well plate and incubated at 37° C. for 1 h for polymerization. Then, around 4×10^4 of MS-1 cells in 100 μL DMEM medium was pre-mixed with different concentrations of complex and that cell-complex containing medium was added on the top of the polymerized matrix. […]

MDA-MB-231 xenografts = assay: In vivo tumor growth inhibition; set-up: species or system nude mice; settings: 5 and 2.5 mg/kg
Procedure: All experiments were followed to the guidelines of the Laboratory Animal Unit of the University of Hong Kong. Ten mice were randomly divided into two groups (5 mice for each group) for two different treatment conditions.
Around 4×10^6 of cancer cells in 100 μL of PBS were injected into right back flanks of the mice through subcutaneous injection. […] The size of the tumors were measured by a ruler every 2-3 days until the mice were sacrificed. The longest diameter (a) and shortest diameter (b) of the tumor would be picked up and the volume of the tumor could be calculated through the following formula: V=0.52×ab^2
It should be noted that the body weight of the mice were also be recorded in order to examine the side effect of the drugs.
To calculate the inhibition effect of the drug, the ratio of enlargement of tumor volume between the drug treatment group and control group would be applied in the following formula:
where Vt and Vt′ are the tumor volumes of drug treatment and control group respectively; V0 and V0′ are the tumor volume at the 0 day of drug treatment and control group respectively.

chicken CAM = assay: Chorioallantoic membrane (CAM) assay, ex vivo angiogenesis; settings: VEGF 50 ng/mL, one day
Procedure: The effect of Pt complex on the ex vivo angiogenesis was determined by chorioallantoic membrane (CAM) assay. Briefly, fertilized chicken eggs were incubated at 37° C. in a humidified incubator with forced air circulation. After 5-6 days, eggs were cracked open and methylcellulose discs containing different concentrations of 1d (40 μl/egg) and VEGF (50 ng/mL) were gently implanted on top of chicken CAM. After one day incubation, the CAM was observed under a microscope (Olympus BX 40) and photographed. VEGF treatment group was used as a positive control. Three eggs per group were used in each experiment and three independent experiments were performed.

MDA-MB-231 cells [2] = assay: Wound closure (scratch) migration assay; format: cell-based, human; settings: for inhibition of migration, agent alone: 1b at sub-cytotoxic concentration, LY294002 or U0126 10 or 20 μM
Procedure: MDA-MB-231 cells were cultured in 6-well plate and allowed to form a confluent monolayer for 24 h. After serum starved for 4 h, cells were scratched by pipette tips, washed with PBS and photographed by using a fluorescence microscope (20× objective). The fresh medium supplemented with 10 vol % FBS was added into each well with different concentrations of Pt complex. After incubated for 24 h, cells were photographed again at three random areas. Then the migrated cells were quantified by manual counting and inhibition ratio was expressed as % of control.

[3] = system: FAK, ERK, Akt in MDA-MB-231 cells; assay: Western blot of phosphorylated and total FAK, ERK and Akt; format: cell-based, human
Procedure: (§4) MDA-MB-231 cells (5×10^5 cells) were incubated with Pt compound and washed with phosphate-buffered saline (PBS), lysed with radioimmunoprecipitation assay buffer (1% Triton X-100, 10% glycerol, 150 mM NaCl, 5 mM sodium fluoride, 1 mM sodium vanadate and protein inhibitor cocktail) for 15 min at 4° C. The cell lysates were centrifuged at 13,000 rpm for 15 min at 4° C. The protein concentrations of the extracts were determined using a BCA protein assay kit (Beyotime, Haimen, China). Specific amount of protein sample (30 μg) was then boiled for 5 min in a 5× sample buffer (50 mM Tris (pH 7.4), 4% sodium dodecyl sulfate (SDS), 10% glycerol and 50 μg/mL bromophenol blue) at a volume ratio of 4:1. Protein samples were subjected to SDS-polyacrylamide gel electrophoresis (PAGE), transferred to polyvinylidene difluoride membranes and immunoblotted with primary anti-bodies. After further incubation with horseradish peroxidase (HRP)-conjugated secondary antibody, the blot was stained with a chemiluminescent detection reagent and subsequently analyzed by enhanced chemiluminescence. Protein expression was visualized on Kodak Biomax X-ray film.

MDA-MB-231 cells [4] = assay: Transwell invasion assay; format: cell-based, human; settings: for inhibition of invasion, agent alone: 1b at sub-cytotoxic concentration, LY294002 or U0126 10 or 20 μM
[5] = system: MDA-MB-231 xenograft tumor tissues; assay: Immunohistochemical analysis of tumor tissues from treated mice; format: in vivo, nude mice; settings: 2.5 and 5.0 mg/kg
[6] = system: PERK, eIF2α, CHOP in MDA-MB-231 cells; assay: Western blot of ER stress-related proteins; format: cell-based, human; settings: 5 uM for 6, 12, 24 and 48 h
Procedure: as §4

[7] = Blood biochemistry, systemic toxicity; settings: treated vs untreated mice bearing MDA-MB-231 xenografts
[8] = system: PARP, caspases 3 and 9 in MDA-MB-231 cells; assay: Western blot of apoptosis-related proteins; format: cell-based, human; settings: 48 h
Procedure: as §4

HUVECs [9] = assay: Conditioned medium (VEGF)-mediated migration; format: cell-based, human; settings: MDA-MB-231 conditioned medium VEGF 13.4 ng/mL, 24 h, sub-cytotoxic
Procedure: (§5) Human umbilical vein endothelial cells (HUVEC) were cultured in endothelial cell growth medium (ECGM): M199 medium (Life Technologies, Invitrogen) supplemented with 15 vol % fetal bovine serum at 37° C. in a humidified (5% CO2, 95% air) atmosphere.

HeLa cells [10] = assay: Confocal fluorescence microscopy co-localization with organelle probes; format: cell-based, human; settings: 1b 5 μM
Procedure: HeLa cells (2×10^5 cells) were seeded in a one chamber slide (Nalgene; Nunc) with culture medium (2 mL per well) and incubated at 37° C. in a humidified atmosphere of 5% CO2/95% air for 24 h. After treating with 1b (5 μM) for 1 h, ER-tracker™ red (1 μM), Mitotracker® deep red (50 nM) or Lysotracker® deep red (50 nM) were incubated with cells for 10 min, and then the cells were washed with PBS twice. Confocal fluorescence images were captured using a Carl Zeiss LSM510 Meta confocal microscope with the use of 488 and 543 nm/633 nm lasers for the excitation of complex 1b and red/deep red tracker respectively, under a Plan-Apochromat 63×1.40NA oil-immersion objective.

in vitro = format: cell-based; settings: mouse
Procedure: (§6) At the same time, the cell viability under the same condition was determined by MTT assay. Again, around 4×10^4 MS-1 cells in 100 μL DMEM medium was pre-mixed with different concentrations of complex and they were seeded into 96-well plate. After 2 h, the medium was removed and fresh medium with 10% MTT was added per well and the plate was incubated for 4 h at 37° C. in a humidified atmosphere of 5% CO2. In order to solubilize the formazan for absorbance readings, 100 μl of SDS (0.1 g/ml, 0.01 M HCl) was added per well and the plate was kept in a dark and humidified chamber overnight. Finally, the absorbance at 580 nm of each well was monitored by microtiter plate reader. Each experiment was repeated three times and the results were expressed as means±standard deviation (SD).

MS1 cells [11] = assay: in vitro; format: cell-based
Procedure: as §6

HUVECs [12] = assay: Conditioned medium (VEGF)-mediated transwell invasion; format: cell-based, human; settings: MDA-MB-231 conditioned medium VEGF 13.4 ng/mL, 24 h, sub-cytotoxic
Procedure: as §5
Effects of Pt complex on the invasion of MDA-MB-231 or HUVECs cells were performed on Transwell Boyden chamber (8 μm pore, Corning, Lowel, Mass.) pre-coated with matrigel for 4 h at 37° C. The cell suspension (2.5×10^5 cells/ml, 100 μL) in serum free medium (SFM) was placed to the upper compartment of chamber. The bottom chambers were supplemented with 500 μl complete medium (10 vol % FBS) or conditioned medium (with VEGF=13.4 ng/ml from MDA-MB-231 cells) containing indicated concentrations of Pt complex. After incubated for 24 h, the non-migrant cells from the upper face were scraped using a cotton swab. The invaded cells on the lower face were fixed with methanol, stained with Giemsa, photographed by a phase-contrast microscope (200×, Nikon TS 100). The invaded cells were quantified by manual counting and inhibition ratio was expressed as % of control.

[13] = system: p15, cyclin D1/D3, CDK 4/6 in MDA-MB-231 cells; assay: Western blot of G0/G1 phase-related proteins; format: cell-based, human; settings: 24 h
Procedure: as §4

[14] = system: uPA, MMP-9, TIMP-1 in MDA-MB-231 cells; assay: Western blot of uPA, MMP-9 and TIMP1; format: cell-based, human
Procedure: as §4

HeLa cells [15] = assay: JC1 staining (mitochondrial membrane potential); format: cell-based, human; settings: with increasing dosage, 2 h
HUVECs [16] = assay: Conditioned medium (VEGF)-mediated tube formation; format: cell-based, human; settings: MDA-MB-231 conditioned medium VEGF 13.4 ng/mL, 24 h, sub-cytotoxic
Procedure: as §5

[17] = different concentrations 24 h or 2 μM over time
[18] = increasing concentration (24 h) or incubation time (2 μM)

SMILES: N.N.[Cl][Pt][Cl] [Cisplatin, cis-diamminedichloroplatinum]
- IC50 (HeLa): 12.9 ± 3.84 µM
- IC50 (NCI-H460): 24.9 ± 3.19 µM
- IC50 (HCT116): 11.8 ± 1.36 µM
- IC50 (MDA-MB-231; MTT, 72 h): 77.2 ± 7.82 µM
- IC50 (MiHa): > 100 µM

SMILES: CCCCN1C=CN(CCCC)[CH]1[Pt]12[n]3c(c4ccccc4c3=Nc3cccc[n+]31)=Nc1cccc[n+]12 [Complex 1b]
- angiogenesis (tube formation) of MS1 cells (MS1 cells [1]): significant inhibition
- death or body weight loss of mice during the treatment (MDA-MB-231 xenografts): did not cause any death or body weight loss
- ex vivo angiogenesis in CAM assay (chicken CAM): effective ex vivo anti-angiogenic properties
- inhibition of migration, agent alone (MDA-MB-231 cells [2]): notable inhibition
- migration of MDA-MB-231 cells (MDA-MB-231 cells [2]; sub-cytotoxic 0.25-1 μM, 24 h): effectively inhibited
- phosphorylation of FAK at Tyr397 [3, 17]: significantly suppress
- phosphorylation of FAK at Tyr925 and Tyr576/577 [3, 17]: moderately inhibited
- total protein level of FAK [3, 17]: little effect
- phosphorylation of Akt ([3]; dose- and time-dependent): significantly inhibited
- phosphorylation of ERK ([3]; dose- and time-dependent): significantly inhibited
- inhibition of invasion, agent alone (MDA-MB-231 cells [4]): notable inhibition
- invasion of MDA-MB-231 cells (MDA-MB-231 cells [4]; sub-cytotoxic concentrations, 24 h): significant inhibition
- CD34 staining, blood vessel formation in tumors [5]: significant inhibition of blood vessel formation
- DNA fragmentation (TUNEL assay) in tumor tissues [5]: higher levels
- caspase-3 in tumor tissues [5]: higher levels
- expression of Ki67 in tumor tissues ([5]; vs control mice): decrease
- CHOP level [6]: stimulated
- phosphorylated PERK level [6]: significant up-regulation
- phosphorylated eIF2α level [6]: stimulated
- blood glucose (GLU) [7]: higher level
- blood urea nitrogen (BUN) [7]: higher level
- plasma level of aspartate aminotransferase (AST) [7]: lower
- plasma level of blood fat (CHOL) [7]: lower
- plasma level of creatine kinase (CK) [7]: lower
- cleavage of PARP and caspases 3 and 9 [8]: cleaved
- growth inhibition at the concentrations of the migration assay (MDA-MB-231; 0.25-1 μM): insignificant growth inhibition
- cell growth inhibition, agent alone (MDA-MB-231): insignificant cell growth inhibitory effects
- CM-mediated migration of HUVECs (HUVECs [9]): significantly suppressed
- Pearson's correlation coefficient for co-localization with ER-Tracker (HeLa cells [10]): 0.83
- viability at 3 h (in vitro): > 90%
- cell death of MS1 cells (MS1 cells [11]): no significant cell death
- CM-mediated invasion of HUVECs (HUVECs [12]): significantly suppressed
- cyclin D1/D3 and CDK 4/6 expression [13]: down-regulation
- p15 expression [13]: stimulation
- expression of TIMP-1 ([14]; 24 h): moderately increased
- expression level of MMP-9 [14, 18]: decreased significantly
- expression level of uPA [14, 18]: decreased significantly
- JC1 ratio of orange to green fluorescence (HeLa cells [15]): decrease
- CM-mediated tube formation of HUVECs (HUVECs [16]): significantly suppressed

SMILES: N#CC(=C(/N)Sc1ccccc1N)/C(C#N)=C(\N)Sc1ccccc1N [Complex U0126, reference compound]
- inhibition of migration, agent alone (MDA-MB-231 cells [2]): notable inhibition
- inhibition of invasion, agent alone (MDA-MB-231 cells [4]): notable inhibition
- cell growth inhibition, agent alone (MDA-MB-231): insignificant cell growth inhibitory effects
